From PubChem BioAssay (NCI)
Where “and” joins values, the source holds several entries; their conditions need not be identical. Equal entries are not always repeated.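 Assay format: 96-well plates, 48-hour exposure. GI50: concentration for 50% inhibition of growth. TGI: concentration producing complete growth inhibition.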

Tests used:
Experiment in all cases: NCI anticancer screen, dose series, 48 h
NCI-H226 lung = system: NCI-H226 lung
CCRF-CEM leukemia = system: CCRF-CEM leukemia
NCI-H460 lung = system: NCI-H460 lung
HCC-2998 colon = system: HCC-2998 colon
HL-60(TB) leukemia = system: HL-60(TB) leukemia
OVCAR-3 ovarian = system: OVCAR-3 ovarian
SF-539 CNS = system: SF-539 CNS
EKVX NSCLC = system: EKVX NSCLC
NCI-H23 lung = system: NCI-H23 lung
U251 CNS = system: U251 CNS

Structure (SMILES)	GI50 (NCI-H226 lung)	TGI (NCI-H226 lung)	GI50 (CCRF-CEM leukemia)	TGI (CCRF-CEM leukemia)	GI50 (NCI-H460 lung)	TGI (NCI-H460 lung)	GI50 (HCC-2998 colon)	TGI (HCC-2998 colon)	GI50 (HL-60(TB) leukemia)	TGI (HL-60(TB) leukemia) [µM]	GI50 (OVCAR-3 ovarian)	TGI (OVCAR-3 ovarian)	GI50 (SF-539 CNS)	TGI (SF-539 CNS)	GI50 (EKVX NSCLC)	TGI (EKVX NSCLC)	GI50 (NCI-H23 lung)	TGI (NCI-H23 lung)	GI50 (U251 CNS)	TGI (U251 CNS)
COc1ccc2c(c1)CC[C@H](O)/C2=C/c1cc(OC)c(OC)c(OC)c1	2.95 µM	> 100 µM	0.273 µM	> 100 µM	0.107 µM	> 36.8 µM	0.16 µM	> 100 µM	0.192 µM	0.86	0.0757 µM	> 100 µM	0.0722 µM	0.43 µM	1.21 µM	> 100 µM	0.162 µM	> 100 µM	0.143 µM	> 100 µM
COc1nc(N)nc2c1ncn2C1OC(CO)C(O)C1O (configuration not stated)	> 5000 µM	> 5000 µM	8.46 µM	–	1650 µM	> 5000 µM	> 5000 µM	> 5000 µM	1190 µM	> 5000	> 5000 µM	> 5000 µM	3800 µM	> 5000 µM	> 5000 µM	> 5000 µM	909 µM	> 5000 µM	> 5000 µM	> 5000 µM
O=C1OC(O)C(Oc2c(Cl)cccc2Cl)=C1Cl (configuration not stated)	–	42.6 µM	–	53 µM	–	29.2 µM	–	37.9 µM	–	50.1	–	31 µM	–	32.3 µM	–	73.2 µM	–	38.9 µM	–	26.8 µM
CN/N=C(\C)C(CN(C)C)C(c1ccccc1)c1c(O)c2ccccc2oc1=O (configuration not stated)	–	> 100 µM	–	> 100 µM	–	> 100 µM	–	> 100 µM	–	> 100	–	> 100 µM	–	> 100 µM	–	> 100 µM	–	> 100 µM	–	> 100 µM
O=C1/C(=C\c2ccccn2)c2ccccc2N1c1c(Cl)cccc1Cl	1.7 µM	3.42 µM	3.31 µM	> 100 µM	1.88 µM	3.65 µM	1.86 µM	3.3 µM	3.75 µM	> 29.6	1.66 µM	3.25 µM	2.44 µM	6.33 µM	3.47 µM	17.8 µM	3.29 µM	15.3 µM	1.84 µM	3.68 µM
COC(=O)C1[C@H](c2cc(OC)c(OC)c(OC)c2)OC(=O)C1(C(=O)OC)C(=O)c1ccc2c(c1)OCO2 (some centres not stated)	–	> 100 µM	–	> 100 µM	–	> 100 µM	–	> 100 µM	–	> 100	–	> 100 µM	–	> 100 µM	–	> 100 µM	–	> 100 µM	–	> 100 µM
Cc1cc(CC(C)CC(C)(C)C)n(O)c(=O)c1 (configuration not stated) (tested in a mixture with another compound)	0.435 µM	10.4 µM	0.261 µM	1.3 µM	0.331 µM	10.9 µM	2.6 µM	17.7 µM	0.189 µM	0.525	0.745 µM	18.6 µM	0.39 µM	13.2 µM	0.889 µM	25.4 µM	0.559 µM	22 µM	0.4 µM	13.9 µM
CC(C)(C)C1CCC2c3c([nH]c4ccccc34)C3C(=O)N(c4ccccc4)C(=O)C3C2C1 (configuration not stated)	–	21.6 µM	–	11 µM	–	12.5 µM	–	53.5 µM	–	30.6	–	19.1 µM	–	23.5 µM	–	55.3 µM	–	40.1 µM	–	11 µM
Cn1c(=O)c2nc(-c3ccc(Cl)cc3)oc2n(C)c1=O	–	> 100 µM	–	> 100 µM	–	> 100 µM	–	> 100 µM	–	> 100	–	> 100 µM	–	> 100 µM	–	> 100 µM	–	> 100 µM	–	> 100 µM
O=Cc1ccc(-c2ccc(-c3nc4ccccc4o3)cc2)o1	17.9 µM	> 100 µM	> 100 µM	> 100 µM	39.6 µM	> 100 µM	28.6 µM	76.4 µM	> 100 µM	> 100	24.1 µM	61.9 µM	32.3 µM	> 100 µM	38.7 µM	> 100 µM	31.8 µM	> 100 µM	25.4 µM	88.1 µM
Cc1ccc(C)c(C2NC(=O)c3ccccc3N2)c1 (configuration not stated)	–	20.5 µM	–	> 25.5 µM	–	34.5 µM	–	31.4 µM	–	0.56	–	0.997 µM	–	3.07 µM	–	> 100 µM	–	> 62.1 µM	–	17.9 µM
CCOC(=N)/C(=C1\OC(N)=C(c2ccc(Cl)cc2)C1=O)c1ccc(Cl)cc1	–	49.9 µM	–	65.6 µM	–	46 µM	–	32.7 µM	–	42	–	32.8 µM	–	30.2 µM	–	32.7 µM	–	28.6 µM	–	30.8 µM
Cc1cc(C)c(Cn2cnc3c(Cl)ncnc32)c(C)c1CCl	> 100 µM	> 100 µM	24.9 µM	95.2 µM	32.7 µM	> 100 µM	19 µM	46.7 µM	27.2 µM	59.9	18.1 µM	53.9 µM	> 100 µM	> 100 µM	> 100 µM	> 100 µM	90.7 µM	> 100 µM	2.77 µM	45.4 µM
C[N+](C)(C)CC(=O)N/N=C(\C(=O)NC1=C(Cl)C(=O)c2ccccc2C1=O)C(C#N)c1csc(-c2ccc([N+](=O)[O-])cc2)n1 (configuration not stated)	–	> 100 µM	–	> 100 µM	–	> 100 µM	–	> 100 µM	–	> 100	–	> 100 µM	–	> 100 µM	–	> 100 µM	–	> 100 µM	–	> 100 µM
CN1C(=O)N[C@H]2[C@@H]3NC(=O)c4ccc(Br)n4[C@@H]3C[C@]21O	0.212 µM	2.64 µM	0.0252 µM	0.327 µM	0.0403 µM	1.5 µM	0.13 µM	1.75 µM	0.0324 µM	0.132	0.121 µM	1.85 µM	0.0825 µM	0.447 µM	0.868 µM	4.98 µM	0.0968 µM	1.42 µM	0.0714 µM	1.55 µM
CCCN(CCCC(NC(C)=O)C(=O)NCc1ccccc1)C(=O)NCCCl (configuration not stated)	–	> 100 µM	–	> 100 µM	–	> 100 µM	–	> 100 µM	–	> 100	–	> 100 µM	–	> 100 µM	–	> 100 µM	–	> 100 µM	–	> 100 µM
NC(=O)c1cccc(Nc2nccc(Nc3cccc4[nH]ncc34)n2)c1	5.52 µM	> 20.1 µM	9.14 µM	> 25 µM	9.05 µM	> 25 µM	14.7 µM	> 25 µM	10.5 µM	> 25	8.31 µM	24.6 µM	6.24 µM	> 21.7 µM	> 25 µM	> 25 µM	17.1 µM	> 25 µM	9.53 µM	> 25 µM
CC(=O)OC1CC2C(C)(C)C(=O)C=C[C@]2(C)C2CCC3(C)C(=CC(=O)C3c3ccoc3)[C@]12C (some centres not stated)	–	35.6 µM	–	30 µM	–	34.1 µM	–	26 µM	–	34.1	–	25.8 µM	–	31.2 µM	–	37.7 µM	–	29.5 µM	–	–
COC(=O)c1cc(O)c2c(c1C(=O)OC)C[C@H]1[C@@H]3CC=C4C[C@@H](O)CC[C@]4(C)[C@H]3CC[C@]21C	3.78 µM	20 µM	1.71 µM	4.99 µM	3.24 µM	12.7 µM	3.74 µM	16 µM	3.03 µM	6.93	2.19 µM	4.94 µM	2.1 µM	6.65 µM	3.29 µM	21.7 µM	3.5 µM	23.5 µM	1.93 µM	7.82 µM
CC[N+]1(C)CCC(O)(c2ccc(OC)cc2)C(C(=O)c2ccc(OC)cc2)C1 (configuration not stated)	–	34.4 µM	–	4.94 µM	–	45 µM	–	34.8 µM	–	8.9	–	22.1 µM	–	32 µM	–	41.6 µM	–	36.8 µM	–	33 µM
Nc1ccn(C2OC(COC(=O)C34CC5CC(CC(C5)C3)C4)C(O)C2O)c(=O)n1 (configuration not stated)	–	> 100 µM	–	1.87 µM	–	> 40.8 µM	–	> 100 µM	–	> 34.1	–	> 100 µM	–	> 100 µM	–	> 100 µM	–	> 100 µM	–	> 100 µM
OCC(O)c1nc2ccc3[nH]ncc3c2c2c1CCCC2 (configuration not stated)	0.971 µM	2.83 µM	1.62 µM	> 50 µM	1.49 µM	5.43 µM	1.07 µM	2.89 µM	1.24 µM	3.14	1.67 µM	> 50 µM	0.957 µM	2.4 µM	1.3 µM	4.67 µM	1.07 µM	2.46 µM	1.65 µM	> 50 µM
Cc1sc2c(c1C)C(c1ccc(Cl)cc1)=N[C@@H](CC(=O)OC(C)(C)C)c1nnc(C)n1-2	2.81 µM and 10.3 µM	22 µM and 22.8 µM	0.644 µM and 0.773 µM	23 µM and 22.9 µM	1.55 µM and 0.603 µM	22.6 µM and 19 µM	0.379 µM and 0.291 µM	13.8 µM and 14 µM	0.118 µM and 0.0301 µM	–	1.24 µM and 0.498 µM	18 µM and 15.6 µM	0.639 µM and 0.462 µM	19.4 µM and 17.9 µM	3.17 µM and 1.18 µM	20.5 µM and 18.2 µM	0.45 µM and 0.28 µM	18.7 µM and 18.6 µM	2.45 µM and 1.24 µM	20.6 µM and 19 µM
